{"source": "patent US6342319B1", "about": "“Nonaqueous electrolyte secondary battery and method of manufacturing negative electrode” (Kabushiki Kaisha Toshiba, priority 1997, dated 2002)"}
{"test": "physchem"}
{"compound": "O=C(O)c1ccccc1C(=O)O", "note": "[benzene-1,2-dicarboxylic acid]", "pKa": "3.5 to 4.5"}
{"compound": "O=C(O)c1ccc(C(=O)O)cc1", "note": "[benzene-1,4-dicarboxylic acid]", "pKa": "3.5 to 4.5"}
{"test": "Acid dissociation constant pKa of the aromatic compound used as precursor material"}
{"compound": "O=C(O)c1cc(C(=O)O)c(C(=O)O)cc1C(=O)O", "note": "[benzene-1,2,4,5-tetracarboxylic acid]", "pKa": "3.5 to 4.5"}
{"compound": "O=C(O)c1ccc(C(=O)O)c(C(=O)O)c1", "note": "[benzene-1,2,4-tricarboxylic acid]", "pKa": "3.5 to 4.5"}
{"compound": "O=C(O)c1cccc(C(=O)O)c1", "note": "[benzene-1,3-dicarboxylic acid]", "pKa": "3.5 to 4.5"}
{"compound": "O=C(O)c1ccc(C(=O)O)c2c(C(=O)O)ccc(C(=O)O)c12", "note": "[naphthalene-1,4,5,8-tetracarboxylic acid]", "pKa": "3.5 to 4.5"}
{"compound": "O=C(O)c1ccc(C(=O)O)c2ccccc12", "note": "[naphthalene-1,4-dicarboxylic acid]", "pKa": "3.5 to 4.5"}
{"compound": "O=C(O)c1cccc2cccc(C(=O)O)c12", "note": "[naphthalene-1,8-dicarboxylic acid]", "pKa": "3.5 to 4.5"}
{"compound": "O=C(O)c1cccc2ccccc12", "note": "[naphthalene-1-carboxylic acid]", "pKa": 4.2}
{"compound": "O=C(O)c1ccc2c3ccc(C(=O)O)c4c(C(=O)O)ccc(c5ccc(C(=O)O)c1c25)c43", "note": "[perylene-3,4,9,10-tetracarboxylic acid]", "pKa": "3.5 to 4.5"}
